In publication PMC6071225 (Viruses, 2018):
Like-named read-outs stand apart in the source and are kept apart here.

What was measured:
[1] = system: wt NA2009; format: biochemical
[2] = system: catalytic domain of wild-type NA2009; format: binding; details: wt
[3] = 50 mM MES (or ACES), pH 6.15, 25 °C
[4] = 50 mM MES (or ACES), pH 6.15, 25 °C, listed as Oseltamivir

For `CCC(CC)O[C@@H]1C=C(C(=O)O)C[C@H](N)[C@H]1NC(C)=O` [oseltamivir carboxylate], the “Fold Ki” value ([1]; wt NA2009, compared with that of wt NA2009) was 1 fold, the Ki ([1]; wt NA2009, mean ± s.d., two independent experiments, 37 °C) was 24 ± 4 nM and the “Fold Kd” value ([2]; compared with that of wt NA2009) was 1 fold. It also gave a Kd [2, 3] of 140 ± 20 nM, a ΔG [2, 3] of -9.4 ± 0.1 kcal/mol and a ΔH [2, 3] of -10.8 ± 0.1 kcal/mol. The “−T·ΔS” value [2, 3] was 1.5 ± 0.2 kcal/mol, the ΔG [2, 4] was -9.4 kcal/mol and the ΔH [2, 4] was -10.8 kcal/mol. The “−T·ΔS” value [2, 4] was 1.5 kcal/mol.
